Reference: US4950647A, “T cell immunopotentiator” (Nucleic Acid Research Institute, priority 1988, dated 1990)

Tests used:
[1] = test system: human lymphocytes (peripheral blood mononuclear cells); test: Phytohemagglutinin (PHA) induced lymphocyte proliferation; type: cell-based
Method: (§1) Peripheral blood mononuclear cells were isolated from heparinized peripheral blood of normal healthy donors as described in Sharma, B. and S. Gupta, "Antigen-specific primary cytotoxic T lymphocyte response in acquired immune deficiency syndrome (AIDS) and AIDS related complex", Clin. Exp. Immunol., 62:296, 1985. Briefly, blood was diluted 1:1 with Hanks balanced salt solution (HBSS). Peripheral blood mononuclear cells were separated on a Ficoll-Hypaque gradient. The peripheral blood mononuclear cells recovered from the interface were washed three times with HBSS and resuspended in RPMI-1640 containing 100 U/ml penicillin, 100 μg/ml streptomycin 2mM L-glutamine (GIBCO, Grand Island, N.Y.), and 10% heat-inactivated pooled A serum (Irvine Scientific, Irvine, Calif.), hereafter referred as complete medium (CM).
(§2) The ability of the compound 6-amino-(2-deoxy-α-D-erythropentofuranosyl)-imidazo[4,5,-C]pyridin-4-one to modulate lymphocyte response to plant mitogens was determined by the modified procedure of Sharma, B., O. Kohashi, M. R. Mickey, and P. T. Terasaki, "Effect of water soluble adjuvants on in vitro lymphocyte immunization", Cancer Res. 35:666, 1975. Peripheral blood mononuclear cells were cultured for 72-96 hr with phytohemagglutinin (Difco, Detroit, Mich.), Concanavalin A (Calbiochem, Calif.) or Pokeweed mitogen (GIBCO, Grand Island, N.Y.) in the presence and absence of 6-amino-(2-deoxy-α-D-erythro-pentofuranosyl)-imidazo[4,5,-C]pyridin- 4-one. The culture were set up in quadruplicate and pulsed with [^3 H]-thymidine for 16 hr and the [^3 H] thymidine incorporation was determined.
Lymphocytes from different donors where incubated with various concentration of phytohemagglutinin in absence and presence of 6-amino-(2-deoxy-α-D-erythro-pentofuranoxyl)imidazo-[4,5,-C]pyridin- 4-one.
[…] Lymphocyte proliferation was determined by ^3 H-thymidine incorporation.

[2] = test system: human lymphocytes (peripheral blood mononuclear cells); test: Concanavalin A (Con A) induced lymphocyte proliferation; type: cell-based; set-up: 3H-thymidine incorporation in Con A-stimulated cultures: unit not given here
Method: as §1, §2
Peripheral blood mononuclear cells were cultured with different concentrations of Concanavalin A in the presence and absence of 6-amino-(2-deoxy-α-D-erythro-pentofuranosyl)-imidazo[4,5,-C]pyridin- 4-one. Lymphocyte proliferation was determined by ^3 H-thymidine incorporation.

[3] = test system: S target cells (cultured lymphoblasts from SB cell line); test: Generation of antigen-specific primary cytotoxic T lymphocytes, 51Cr release, target S; type: cell-based, human; details: for % Specific Cytotoxicity: Exp. 2, C + Sx, no compound 26
Method: Peripheral blood mononuclear cells from healthy donor A and C were cultured together with irradiated (3000 R) peripheral blood mononuclear cells from donor B and irradiated cells (SX) from B cells of the SB cell line, respectively, for five days. At the end of the incubation period, the cells were washed and resuspended in medium and then their cytotoxic activity was determined against the specific lymphoblast target cell B or S according to the procedure of Sharma and Gupta noted above.

[4] = donor 2, PHA 0.25 mg/0.2 ml, compound (0.1)
[5] = donor 2, PHA 1.0 mg/0.2 ml, compound (0.05)
[6] = donor 2, PHA 4.0 mg/0.2 ml, compound (0.038)
[7] = donor 3, PHA 0.25 mg/0.2 ml, compound (0.4)
[8] = donor 3, PHA 1.0 mg/0.2 ml, compound (0.2)
[9] = donor 3, PHA 1.0 mg/0.2 ml, compound (0.4)
[10] = donor 3, PHA 4.0 mg/0.2 ml, compound (0.2)
[11] = donor 3, PHA 4.0 mg/0.2 ml, compound (0.4)
[12] = donor 4, PHA 0.25 mg/0.2 ml, compound (0.4)
[13] = donor 4, PHA 1.0 mg/0.2 ml, compound (0.05)
[14] = donor 4, PHA 1.0 mg/0.2 ml, compound (0.4)
[15] = donor 4, PHA 4.0 mg/0.2 ml, compound (0.4)
[16] = donor 5, PHA 0.5 mg/0.2 ml, compound (0.05)
[17] = donor 5, PHA 1.0 mg/0.2 ml, compound (0.2)
[18] = donor 5, PHA 4.0 mg/0.2 ml, compound (0.2)
[19] = donor 6, PHA 0.5 mg/0.2 ml, compound (0.05)
[20] = donor 7, PHA 0.125 mg/0.2 ml, compound (0.4)
[21] = donor 7, PHA 0.125 mg/0.2 ml, compound (1.0)
[22] = donor 1, Con A 0.25 mg/0.2 ml, compound (0.05)
[23] = donor 1, Con A 1.0 mg/0.2 ml, compound (0.006)
[24] = donor 1, Con A 4.0 mg/0.2 ml, compound (0.038)
[25] = donor 2, Con A 0.13 mg/0.2 ml, compound (0.2)
[26] = donor 2, Con A 0.13 mg/0.2 ml, compound (0.4)
[27] = donor 2, Con A 0.25 mg/0.2 ml, compound (0.2)
[28] = donor 2, Con A 0.25 mg/0.2 ml, compound (0.4)
[29] = donor 2, Con A 2.0 mg/0.2 ml, compound (0.025)
[30] = donor 3, Con A 0.13 mg/0.2 ml, compound (0.0125)
[31] = donor 3, Con A 0.13 mg/0.2 ml, compound (0.4)
[32] = donor 3, Con A 0.25 mg/0.2 ml, compound (0.05)
[33] = donor 3, Con A 0.25 mg/0.2 ml, compound (0.4)
[34] = donor 3, Con A 2.0 mg/0.2 ml, compound (0.05)
[35] = donor 3, Con A 2.0 mg/0.2 ml, compound (O.4)
[36] = donor 4, Con A 0.05 mg/0.2 ml, compound (0.025)
[37] = donor 4, Con A 0.13 mg/0.2 ml, compound (0.05)
[38] = donor 4, Con A 0.25 mg/0.2 ml, compound (0.05)
[39] = donor 5, Con A 0.5 mg/0.2 ml, compound (0.05)
[40] = donor 5, Con A 2.0 mg/0.2 ml, compound (0.025)

`Nc1cc2c(ncn2[C@@H]2C[C@H](O)[C@@H](CO)O2)c(O)n1` [Test Compound, 6-amino-1-(2-deoxy-α-D-erythro-pentofuranosyl)imidazo[4,5-C]-pyridin-4-one] was tested, and the “activity in augmenting phytohemagglutinin response compared with interleukin-2” value ([1]; Table III) was “equals that of interleukin-2”, the “potentiation of lymphocyte response to phytohemagglutinin” value ([1]; all the 5 donors examined) was “striking potentiation” and the “3H-thymidine incorporation in PHA-stimulated cultures” value [1, 4] was 56362 ± 8650 Counts per minute. For the same compound, the “% Potentiation” value [1, 4] was 294%, the “3H-thymidine incorporation in PHA-stimulated cultures” value [1, 5] was 110155 ± 5101 Counts per minute and the “% Potentiation” value [1, 5] was 41%. The “3H-thymidine incorporation in PHA-stimulated cultures” value [1, 6] was 127102 ± 3001 Counts per minute, the “% Potentiation” value [1, 6] was 53% and the “3H-thymidine incorporation in PHA-stimulated cultures” value [1, 7] was 34646 ± 6344 Counts per minute. The “% Potentiation” value [1, 7] was 1074%, the “3H-thymidine incorporation in PHA-stimulated cultures” value [1, 8] was 77757 ± 18381 Counts per minute and the “% Potentiation” value [1, 8] was 295%. For the same compound, the “3H-thymidine incorporation in PHA-stimulated cultures” value [1, 9] was 61653 ± 12029 Counts per minute, the “% Potentiation” value [1, 9] was 213% and the “3H-thymidine incorporation in PHA-stimulated cultures” value [1, 10] was 88518 ± 7387 Counts per minute. For the same compound, the “% Potentiation” value [1, 10] was 144%, the “3H-thymidine incorporation in PHA-stimulated cultures” value [1, 11] was 97950 ± 6240 Counts per minute and the “% Potentiation” value [1, 11] was 170%. For the same compound, the “3H-thymidine incorporation in PHA-stimulated cultures” value [1, 12] was 28765 ± 4475 Counts per minute, the “% Potentiation” value [1, 12] was 1171% and the “3H-thymidine incorporation in PHA-stimulated cultures” value [1, 13] was 50131 ± 4674 Counts per minute. The “% Potentiation” value [1, 13] was 88%, the “3H-thymidine incorporation in PHA-stimulated cultures” value [1, 14] was 91669 ± 7462 Counts per minute and the “% Potentiation” value [1, 14] was 244%. For the same compound, the “3H-thymidine incorporation in PHA-stimulated cultures” value [1, 15] was 119811 ± 2608 Counts per minute, the “% Potentiation” value [1, 15] was 91% and the “3H-thymidine incorporation in PHA-stimulated cultures” value [1, 16] was 66109 ± 2263 Counts per minute. For the same compound, the “% Potentiation” value [1, 16] was 71%, the “3H-thymidine incorporation in PHA-stimulated cultures” value [1, 17] was 79690 ± 3113 Counts per minute and the “% Potentiation” value [1, 17] was 79%. For the same compound, the “3H-thymidine incorporation in PHA-stimulated cultures” value [1, 18] was 93966 ± 6505 Counts per minute, the “% Potentiation” value [1, 18] was 103% and the “3H-thymidine incorporation in PHA-stimulated cultures” value [1, 19] was 16156 ± 3600 Counts per minute. The “% Potentiation” value [1, 19] was 110%, the “3H-thymidine incorporation in PHA-stimulated cultures” value [1, 20] was 25657 ± 2488 Counts per minute and the “% Potentiation” value [1, 20] was 353%. The “3H-thymidine incorporation in PHA-stimulated cultures” value [1, 21] was 23582 ± 3903 Counts per minute, the “% Potentiation” value [1, 21] was 317% and the “increase in lymphocyte response to Concanavalin A” value [2] was “marked increase”. For the same compound, the “mean increase of Con A response” value ([2]; Table IV) was 109%, the “suppressive effect on Con A response” value ([2]; Table IV) was “slight suppressive effect in only one case” and the “3H-thymidine incorporation in Con A-stimulated cultures” value [2, 22] was 49279 ± 2732. For the same compound, the “% Potentiation” value [2, 22] was 32%, the “3H-thymidine incorporation in Con A-stimulated cultures” value [2, 23] was 71105 ± 4015 and the “% Potentiation” value [2, 23] was 34%. The “3H-thymidine incorporation in Con A-stimulated cultures” value [2, 24] was 99322 ± 8655, the “% Potentiation” value [2, 24] was 43% and the “3H-thymidine incorporation in Con A-stimulated cultures” value [2, 25] was 18607 ± 2157. The “% Potentiation” value [2, 25] was 318%, the “3H-thymidine incorporation in Con A-stimulated cultures” value [2, 26] was 31068 ± 2678 and the “% Potentiation” value [2, 26] was 599%. For the same compound, the “3H-thymidine incorporation in Con A-stimulated cultures” value [2, 27] was 44958 ± 2248, the “% Potentiation” value [2, 27] was 203% and the “3H-thymidine incorporation in Con A-stimulated cultures” value [2, 28] was 48354 ± 3336. For the same compound, the “% Potentiation” value [2, 28] was 226%, the “3H-thymidine incorporation in Con A-stimulated cultures” value [2, 29] was 162317 ± 10872 and the “% Potentiation” value [2, 29] was 29%. For the same compound, the “3H-thymidine incorporation in Con A-stimulated cultures” value [2, 30] was 29693 ± 4998, the “% Potentiation” value [2, 30] was 50% and the “3H-thymidine incorporation in Con A-stimulated cultures” value [2, 31] was 39902 ± 2918. For the same compound, the “% Potentiation” value [2, 31] was 102%, the “3H-thymidine incorporation in Con A-stimulated cultures” value [2, 32] was 57780 ± 9762 and the “% Potentiation” value [2, 32] was 36%. For the same compound, the “3H-thymidine incorporation in Con A-stimulated cultures” value [2, 33] was 51010 ± 3861, the “% Potentiation” value [2, 33] was 20% and the “3H-thymidine incorporation in Con A-stimulated cultures” value [2, 34] was 122692 ± 3643. For the same compound, the “% Potentiation” value [2, 34] was 12%, the “3H-thymidine incorporation in Con A-stimulated cultures” value [2, 35] was 98613 ± 4737 and the “% Potentiation” value [2, 35] was -11%. The “3H-thymidine incorporation in Con A-stimulated cultures” value [2, 36] was 43957 ± 6053, the “% Potentiation” value [2, 36] was 54% and the “3H-thymidine incorporation in Con A-stimulated cultures” value [2, 37] was 44234 ± 5027. For the same compound, the “% Potentiation” value [2, 37] was 110%, the “3H-thymidine incorporation in Con A-stimulated cultures” value [2, 38] was 39059 ± 5098 and the “% Potentiation” value [2, 38] was 49%. The “3H-thymidine incorporation in Con A-stimulated cultures” value [2, 39] was 71303 ± 3633, the “% Potentiation” value [2, 39] was 33% and the “3H-thymidine incorporation in Con A-stimulated cultures” value [2, 40] was 75046 ± 1495. For the same compound, the “% Potentiation” value [2, 40] was 16%, the “% Specific Cytotoxicity” value ([3]; compound (0.006)) was 42% and the “% Specific Cytotoxicity” value ([3]; compound (0.025)) was 36%. The “% Specific Cytotoxicity” value ([3]; compound (0.1)) was 53% and the “cytotoxic T lymphocyte activity” value ([3]; cultured lymphoblasts from the SB cell (leukemic) line) was “increased”.
